# Experimental data from patent US11511054B2, “Use of antistatic materials in the airway for thermal aerosol condensation process” (Alexza Pharmaceuticals, Inc., priority 2015, dated 2022).
# Assays:
# [1] = Net charge measurement of thermal condensation aerosol (aerosol electrometer, Staccato single dose); type: physicochemical; conditions: for Total net charge of aerosol particles (in words): standard housing
# [2] = Airway deposition and aerosol charges of normal, metallized and Permastat Plus airways (Example 40); type: physicochemical; conditions: 28.3 LPM
# Text: Purpose • To compare aerosol charge and airway deposition of various airways: normal airway, Metallizedairway(SS*/Cu/Cu/SS), and Permastat Plus airway.
# [3] = Aerosol charge testing with heat packages, screening foils and funnels (Examples 2-3, 12); conditions: for Aerosol charge relative to Alprazolam: Example 2, aerosol electrometer
# [4] = Total net charge vs. airway housing deposition, standard vs anti-static polycarbonate housing; conditions: for Net Charge: mean ± SD, N-4
# Description: Alprazolam device versions were tested in this part of the study. The first version (used in Part 1) used an airway housing made of polycarbonate with a surface resistivity of—1×10 18 0/sq. The second version used an airway housing made of a lower resistivity polycarbonate (−1×1011 0/sq) to provide charge dissipation.
# [5] = Airway deposition and aerosol charges for Permastat, Permastat Plus and standard airway material (Example 38); conditions: 1 mg, 28.3 LPM, mean of 4 devices
# Text: Purpose: • To find out the aerosol charge generated from Permastat and Permastat Plus airways and to compare that to normal airway (control)
# Materials/Equipment • Standard airway material: makrolon polycarbonate • Permastat: surface resistivity ˜1E11 ohm/sq • Permastat Plus: surface resistivity ˜1E9 ohm/sq • Drug: alprazolam
# [6] = no applied potential to airway housing, mean ± SD
compound,measurement,setting,value
Cc1nnc2n1-c1ccc(Cl)cc1C(c1ccccc1)=NC2 [Alprazolam],Net Charge,[1]; [6],−252 ± 59 pC/mg
same,Total net charge of aerosol particles (in words),[1],relatively large net negative charge
same,Total net charge of aerosol particles (in words),[1]; listed as ALP,net negatively charged
same,Total net charge of aerosol particles (in words),[1]; listed as alprazolam,substantial
same,Ave Aerosol Charge,"[2]; Metallized airway, ESD gun 16 kV+",−111.63 pC
same,Ave Aerosol Charge,"[2]; Metallized airway, no ESD gun",−181.57 pC
same,Ave Aerosol Charge,"[2]; Normal airway, ESD gun 16 kV+",−220.405 pC
same,Ave Aerosol Charge,"[2]; Normal airway, no ESD gun",−220.645 pC
same,Ave Aerosol Charge,"[2]; Permastat Plus airway, ESD gun 16 kV+",−21.895 pC
same,Ave Aerosol Charge,"[2]; Permastat Plus airway, no ESD gun",−16.57 pC
same,Aerosol charge (in words),[3]; Staccato heat packages with Staticide,small and negative
same,Aerosol charge (in words),[3]; Staccato heat packages without Staticide,large and negative
same,Aerosol charge polarity,[3]; partially Staticide-coated airway,positive polarity
same,Net Charge,[4]; anti-static polycarbonate airway housing,−2.2 ± 1
same,"Total net charge, anti-static housing relative to standard housing (fold less)",[4]; anti-static vs standard housing,100 fold
same,Net Charge,[4]; standard polycarbonate airway housing,−279 ± 45
same,Mean charge/mass,[5]; Permastat Plus airway,−2.2 pC/mg
same,Mean charge/mass,[5]; Permastat airway,−46.2 pC/mg
same,Mean charge/mass,[5]; control (normal) airway,−279.2 pC/mg
CCCCNc1cc(C(=O)O)cc(S(N)(=O)=O)c1Oc1ccccc1 [Bumetanide],Aerosol charge relative to Alprazolam,[3],about one order of magnitude lower
CN1C(=O)CC(=O)N(c2ccccc2)c2cc(Cl)ccc21 [Clobazam],Net Charge,[1]; [6],0 ± 0 pC/mg
CN1C(=O)CN=C(c2ccccc2)c2cc(Cl)ccc21 [Diazepam],Net Charge,[1]; [6],−1 ± 1 pC/mg
Clc1ccc2c(c1)C(c1ccccc1)=NCc1nncn1-2 [Estazolam],Net Charge,[1]; [6],−202 ± 3 pC/mg
same,Total net charge of aerosol particles (in words),[1],substantial
CN1CCN(CCCN2c3ccccc3Sc3ccc(Cl)cc32)CC1 [Prochlorperazine],Net Charge,[1]; [6],27 ± 3 pC/mg
same,Aerosol charge relative to Alprazolam,[3],about one order of magnitude lower
Cc1nnc2n1-c1ccc(Cl)cc1C(c1ccccc1Cl)=NC2 [Triazolam],Net Charge,[1]; [6],−158 ± 13 pC/mg
same,Total net charge of aerosol particles (in words),[1],substantial
CCN(C(C)=O)c1cccc(-c2ccnc3c(C#N)cnn23)c1 [Zaleplon],Net Charge,[1]; +16 kV applied to airway housing,−15 ± 6 pC/mg
same,Net Charge,[1]; [6],7 ± 1 pC/mg
same,Net Charge,[1]; −16 kV applied to airway housing,2 ± 8 pC/mg
same,Degree of aerosol charge (in words),[3]; Example 3,low degree of charge
